Measured values published in US5773573A, “HIV peptides” (priority 1994, dated 1998).
Like-named read-outs stand apart in the source and are kept apart here. Residues, ends and D or L forms follow the SMILES beside them.

Tests used:
HIV p24 antigen = experiment: p24Ag Assay on blood samples of HIV infected patient given HEP1; assay type: in vivo; conditions: patient three
Description: The objective of this study was to determine in an HIV infected patient if the induction of immunological tolerance to HEP1 could reduce immune activation and HIV infection. The design of the first clinical experiment was to orally administer HEP1 to the patient in daily 10 mg doses (the lower end of the preferred dose range). This was then followed approximately three months later with a subcutaneous administration of HEP1 at a higher dose of 140 mg. To assess the therapeutic benefit of HEP1, the following disease progression markers were measured by taking blood samples before, during and after each trial and determining: HIV levels by a p24 antigen assay, HIV infectivity by a cellular TCID assay and immune activation by quantitating levels of various lymphocytes.
p24Ag is a marker of HIV infection as well as a predictor of HIV disease progression. The p24Ag assay measures p24 antigen from the core of HIV and is an immunoassay using murine monoclonal antibody coated onto microwell strips. The assay detects HIV in plasma, serum or tissue culture medium. If present, the antigen binds to the antibody-coated microwells. The bound antigen is recognised by biotinylated antibodies to HIV which react with conjugated strepavidin-horseradish peroxidase. Colour develops from the reaction of the peroxidase with hydrogen peroxidase in the presence of tetramethylbenzidine (TMB) substrate. Specimens which are HIV p24Ag positive can be quantitated by setting up a standard curve using serial dilutions of the Antigen Reagent. The assay is not accurate below 30 picograms per ml.
The following markers of HIV disease progression were assayed: p24Ag (the concentration of HIV p24 protein in picogram/ml in the blood), TCID (the infectivity of the HIV in the cells of blood sample measured by an in vitro cell culture assay in which a serial dilution of the sample was mixed with activated uninfected PBMC and the level of HIV infection determined by p24Ag assay), total white count (immune activation measured by the number of white cells per mm^3), CD4 (the number of CD4 positive cells per mm^3), CD8 (the number of CD8 positive cells per mm^3), NK (the number of Natural Killer cells per mm^3), Lymphocytes (the number of cells per mm^3), Monocytes (the number of cells per mm^3), and Granulocytes (the number of cells per mm^3). Normalised data was calculated by dividing each data point by the value of its data series on day 1 of the trail and multiplying by 100.

[1] = patient three
Description: Oral administration of HEP1 solution containing 10 mg HEP1 was started on day 2 of the trial and continued until day 22. Further Blood samples were taken for analysis on day 7, day 14, day 21 and day 28 of the trial (7 days after the last dose of HEP1).

[2] = oral HEP1 10 mg daily day 2-22, day 1, before first dose
[3] = oral HEP1 10 mg daily day 2-22, day 7, during treatment
[4] = oral HEP1 10 mg daily day 2-22, day 28, after treatment
[5] = orally administered HEP1 10 mg daily
[6] = single subcutaneous HEP1 injection in the abdominal wall

SMILES: CC(C)[C@H](NC(=O)[C@@H](NC(=O)[C@H](CCC(=O)O)NC(=O)[C@H](CCCNC(=N)N)NC(=O)[C@H](CCCNC(=N)N)NC(=O)[C@H](CCCCN)NC(=O)[C@H](CCCCN)NC(=O)[C@H](CCC(=O)O)NC(=O)[C@@H](N)[C@@H](C)O)[C@@H](C)O)C(=O)N[C@@H](CCC(=O)O)C(=O)N[C@@H](CCCNC(=N)N)C(=O)N[C@@H](CCC(=O)O)C(=O)N[C@@H](CCCCN)C(=O)N[C@@H](CCC(=O)O)C(=O)O [HEP1, NH2 ThrGluLysLysArgArgGluThrValGluArgGluLysGluCOOH] (H-TEKKRRETVEREKE-OH)
- p24Ag (HIV p24 antigen; [2]): 71 picogram/ml
- p24Ag, normalised data (day 1 = 100) (HIV p24 antigen; [2]): 100
- p24Ag (HIV p24 antigen; [3]): 44 picogram/ml
- p24Ag, normalised data (day 1 = 100) (HIV p24 antigen; [3]): 62
- p24Ag (HIV p24 antigen; [4]): 38 picogram/ml
- p24Ag, normalised data (day 1 = 100) (HIV p24 antigen; [4]): 54
- HIV virus particles as measured by p24Ag levels, course (HIV p24 antigen; oral administration of HEP1 (FIG. 2)): decline
- persistence of the effect on p24Ag and TCID after treatment (HIV p24 antigen; [5]): 7 days
- reduction of viral load as measured by p24Ag (HIV p24 antigen; [5]): 46%
- p24Ag (HIV p24 antigen; single subcutaneous HEP1 dose on day 1, day-91, end of oral study): 38 picogram/ml
- adverse reactions ([1]; oral HEP1 10 mg daily day 2-22): no adverse reactions
- adverse reactions [1, 6]: no other adverse reactions
- duration of stinging sensation after injection [1, 6]: approximately 15 minutes
